The results in this text go back to ChEMBL document CHEMBL1201862, “PubChem BioAssay data set” (2004).

Test [1] can be described thus: cells. It counts as functional, cell-based.
Test [2] in a line: cells. It counts as functional, cell-based. The source holds these as a separate data set.
For the next test, the target named is Trypsin (Sus scrofa, UniProt P00761). The test is described as follows: trypsin protease activity blockade – biochemical, quenched peptide fluorescence, cherry-pick, selectivity assay for Rce1 protease inhibitor project, dose response (AID 488789).
Another test concerns the target T1, Streptokinase A (Streptococcus pyogenes serotype M1, UniProt P10520).
T1 sequence (P10520 whole entry): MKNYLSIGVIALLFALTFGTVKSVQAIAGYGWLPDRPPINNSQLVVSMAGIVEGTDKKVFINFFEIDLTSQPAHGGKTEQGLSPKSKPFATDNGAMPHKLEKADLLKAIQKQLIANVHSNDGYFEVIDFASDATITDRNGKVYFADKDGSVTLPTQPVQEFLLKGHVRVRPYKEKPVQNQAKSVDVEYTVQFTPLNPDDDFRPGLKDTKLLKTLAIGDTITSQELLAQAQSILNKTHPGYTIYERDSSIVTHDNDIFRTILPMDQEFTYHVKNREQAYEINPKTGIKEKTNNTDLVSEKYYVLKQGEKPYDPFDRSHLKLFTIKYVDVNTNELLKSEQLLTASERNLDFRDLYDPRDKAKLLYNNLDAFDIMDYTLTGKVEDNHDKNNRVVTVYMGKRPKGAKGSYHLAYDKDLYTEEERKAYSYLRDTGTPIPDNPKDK
The test is described as follows: viability-normalized secreted streptokinase activity reduction – plasminogen activation absorbance, OD405, dose response (AID 1914).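 Also: secreted streptokinase activity via plasminogen activation per viability signal from cell pellet.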 Format: functional, Streptococcus pyogenes M1 GAS.

A further test concerns Vero. Briefly: cells. It counts as functional. Conditions: Chlorocebus sabaeus.
Test [3] addresses T2, Short transient receptor potential channel 4 (Mus musculus, UniProt Q9QUQ5).
T2 sequence (Q9QUQ5 whole entry): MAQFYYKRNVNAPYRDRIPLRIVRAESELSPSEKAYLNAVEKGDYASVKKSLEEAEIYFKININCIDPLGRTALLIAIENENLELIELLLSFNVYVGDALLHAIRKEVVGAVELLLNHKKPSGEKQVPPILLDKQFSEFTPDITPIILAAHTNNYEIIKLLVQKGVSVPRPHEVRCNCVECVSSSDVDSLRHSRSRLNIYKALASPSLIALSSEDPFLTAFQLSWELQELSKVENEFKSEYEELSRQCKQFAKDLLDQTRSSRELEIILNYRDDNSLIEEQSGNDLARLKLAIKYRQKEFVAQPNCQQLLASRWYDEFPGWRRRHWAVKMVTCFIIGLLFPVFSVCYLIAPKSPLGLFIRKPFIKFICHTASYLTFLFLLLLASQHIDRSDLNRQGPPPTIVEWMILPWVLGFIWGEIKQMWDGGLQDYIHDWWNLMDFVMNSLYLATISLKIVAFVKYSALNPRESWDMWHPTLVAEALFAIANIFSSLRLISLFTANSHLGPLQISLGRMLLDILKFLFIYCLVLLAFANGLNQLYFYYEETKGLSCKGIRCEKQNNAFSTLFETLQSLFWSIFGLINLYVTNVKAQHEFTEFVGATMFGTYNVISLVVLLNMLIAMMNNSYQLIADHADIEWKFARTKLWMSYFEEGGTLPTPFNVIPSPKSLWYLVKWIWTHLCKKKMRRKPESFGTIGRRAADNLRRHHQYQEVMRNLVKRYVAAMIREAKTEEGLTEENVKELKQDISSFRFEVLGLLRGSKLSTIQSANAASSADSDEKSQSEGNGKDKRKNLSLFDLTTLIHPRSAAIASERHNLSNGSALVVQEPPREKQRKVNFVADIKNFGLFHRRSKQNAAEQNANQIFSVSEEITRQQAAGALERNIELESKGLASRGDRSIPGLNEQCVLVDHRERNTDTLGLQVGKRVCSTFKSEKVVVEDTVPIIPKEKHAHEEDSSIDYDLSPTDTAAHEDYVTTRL
Briefly: block of DAMGO-driven TRPC4 calcium entry – cell-based, HEK293 TRPC4/mu-opioid, Fluo-4 calcium, dose response (AID 434942).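 Also: potency of inhibitors blocking the TRPC4 calcium response.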 It counts as functional.

The target of a further test is Genome polyprotein (dengue virus type 2, UniProt P29990). Briefly: flavivirus cap methylation enzyme inhibition – biochemical, confirmation dose response, primary screen (AID 588689). Format: functional.
For test [4], the target named is FAD-linked sulfhydryl oxidase ALR (Homo sapiens, UniProt P55789). The test is described as follows: ALR-catalysed DTT oxidation blockers – biochemical, H2O2 detection, luminescence, cherry-pick, dose response (AID 493248).
The next test addresses Nonstructural protein 1 (Influenza A virus, UniProt Q194T2). It counts as functional, Influenza A virus (A/California/07/2009(H1N1)).
A further test deals with INS1. Briefly: INS-1E survival protection against cytokine death – cell-based, luminescence, retest, dose response (AID 449756).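 Also: cell death triggered by IL-1 beta plus TNF-alpha plus IFN-gamma mixture; protective hits raise ATP signal compared with cytokine alone wells.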 Format: functional. To be noted: Rattus norvegicus.
Test [5] addresses T3, High affinity choline transporter 1 (Homo sapiens, UniProt Q9GZV3).
T3 sequence (Q9GZV3 whole entry): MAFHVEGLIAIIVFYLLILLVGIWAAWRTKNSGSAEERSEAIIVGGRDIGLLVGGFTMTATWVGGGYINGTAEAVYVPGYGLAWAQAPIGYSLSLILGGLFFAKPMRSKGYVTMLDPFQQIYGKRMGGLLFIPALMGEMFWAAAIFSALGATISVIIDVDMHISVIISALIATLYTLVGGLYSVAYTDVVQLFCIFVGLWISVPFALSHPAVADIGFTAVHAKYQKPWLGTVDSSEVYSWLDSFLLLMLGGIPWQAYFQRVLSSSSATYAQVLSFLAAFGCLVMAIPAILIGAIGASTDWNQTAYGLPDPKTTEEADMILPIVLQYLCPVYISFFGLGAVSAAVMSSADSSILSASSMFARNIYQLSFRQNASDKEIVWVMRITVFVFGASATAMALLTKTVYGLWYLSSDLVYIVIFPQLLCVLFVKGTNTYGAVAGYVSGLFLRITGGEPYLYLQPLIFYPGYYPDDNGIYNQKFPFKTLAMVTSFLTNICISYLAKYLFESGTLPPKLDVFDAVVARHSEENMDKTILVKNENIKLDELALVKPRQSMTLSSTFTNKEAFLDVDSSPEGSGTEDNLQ
The test is described as follows: human choline transporter blockers, potency – cell-based, 5-point CRC, membrane potential dye, dose response (AID 504840). Format: functional.

The nature of test [6]: HIV-1 AD8 envelope cell-cell fusion blockers – cherry-pick, dose response (AID 652062).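 Also: luciferase signal from cell-cell fusion driven by HIV-1 clade B AD8 Env; potency is for inhibitors of fusion seen as a drop in luminescence.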 It counts as functional, cell-based.
A short description of test [7]: THP-1 cell cytotoxicity, dose response, cytotoxicity control for non-replicating M. tuberculosis project (AID 489025). It counts as functional.
Another test relates to H4. The test is described as follows: Luminescence Cell-Based Dose Response HTS to Identify Activators of 5'UTR Stem-Loop Driven Prion Protein mRNA Translation in H4 Neuroglioblastoma Cells. [Related pubchem assays: 1829 (Project Summary), 1814 (Primary HTS)]. It counts as functional. Conditions: Homo sapiens.
A short description of test [8]: Luminescence Cell-Based Dose Confirmation HTS to Identify Activators of 5'UTR Stem-Loop Driven Alpha-Synuclein mRNA Translation in H4 Neuroglioblastoma Cells. [Related pubchem assays: 1829 (Project Summary), 1814 (Primary HTS)]. It counts as functional.
Test [9] is described as follows: Luminescence Cell-Based Dose Response HTS to Identify Activators of Luciferase Translation or Activity in H4 […] Cells. [Related pubchem assays: 1829 (Project Summary), 1814 (Primary HTS)]. Format: functional.
The next test has as its target T4, Protein skinhead-1 (Caenorhabditis elegans, UniProt P34707).
T4 sequence (P34707 whole entry): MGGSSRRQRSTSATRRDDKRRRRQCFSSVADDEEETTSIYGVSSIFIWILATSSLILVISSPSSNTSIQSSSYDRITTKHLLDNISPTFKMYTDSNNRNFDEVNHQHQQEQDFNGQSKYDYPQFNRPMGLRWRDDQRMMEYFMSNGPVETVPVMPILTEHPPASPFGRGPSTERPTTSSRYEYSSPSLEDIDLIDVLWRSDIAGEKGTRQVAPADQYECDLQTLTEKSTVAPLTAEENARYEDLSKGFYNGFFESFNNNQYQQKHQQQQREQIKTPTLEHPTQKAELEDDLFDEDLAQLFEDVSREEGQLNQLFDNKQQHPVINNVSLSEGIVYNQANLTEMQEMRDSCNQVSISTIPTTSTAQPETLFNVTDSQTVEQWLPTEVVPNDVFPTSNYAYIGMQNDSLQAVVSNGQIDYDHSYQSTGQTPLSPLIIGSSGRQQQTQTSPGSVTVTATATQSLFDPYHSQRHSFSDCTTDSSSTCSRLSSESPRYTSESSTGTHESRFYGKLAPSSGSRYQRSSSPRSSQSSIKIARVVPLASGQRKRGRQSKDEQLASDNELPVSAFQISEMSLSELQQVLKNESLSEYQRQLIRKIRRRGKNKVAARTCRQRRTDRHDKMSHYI
Format: functional.

Calls of active or inactive are those of the source.

FAD-linked sulfhydryl oxidase ALR, sequence (P55789 whole entry): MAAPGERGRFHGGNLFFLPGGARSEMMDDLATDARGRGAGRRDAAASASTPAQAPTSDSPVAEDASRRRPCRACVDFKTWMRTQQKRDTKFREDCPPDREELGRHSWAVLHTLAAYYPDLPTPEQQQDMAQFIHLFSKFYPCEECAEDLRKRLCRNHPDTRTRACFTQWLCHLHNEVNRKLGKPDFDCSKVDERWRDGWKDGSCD
Trypsin, sequence (P00761 whole entry): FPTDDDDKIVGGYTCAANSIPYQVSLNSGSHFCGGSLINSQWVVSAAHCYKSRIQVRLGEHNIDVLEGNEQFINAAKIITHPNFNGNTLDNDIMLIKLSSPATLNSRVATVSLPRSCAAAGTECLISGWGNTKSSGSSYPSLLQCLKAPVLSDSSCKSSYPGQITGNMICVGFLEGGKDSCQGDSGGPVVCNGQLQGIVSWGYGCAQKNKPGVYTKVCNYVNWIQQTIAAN
Nonstructural protein 1, sequence (Q194T2 whole entry): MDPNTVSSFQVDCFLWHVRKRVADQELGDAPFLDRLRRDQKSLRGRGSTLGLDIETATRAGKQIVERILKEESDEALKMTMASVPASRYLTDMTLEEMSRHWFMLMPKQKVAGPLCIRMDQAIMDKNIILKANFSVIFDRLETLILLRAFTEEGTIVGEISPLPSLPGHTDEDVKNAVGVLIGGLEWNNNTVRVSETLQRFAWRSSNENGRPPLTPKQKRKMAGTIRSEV
Genome polyprotein, sequence (P29990 2492-3391 limits assumed): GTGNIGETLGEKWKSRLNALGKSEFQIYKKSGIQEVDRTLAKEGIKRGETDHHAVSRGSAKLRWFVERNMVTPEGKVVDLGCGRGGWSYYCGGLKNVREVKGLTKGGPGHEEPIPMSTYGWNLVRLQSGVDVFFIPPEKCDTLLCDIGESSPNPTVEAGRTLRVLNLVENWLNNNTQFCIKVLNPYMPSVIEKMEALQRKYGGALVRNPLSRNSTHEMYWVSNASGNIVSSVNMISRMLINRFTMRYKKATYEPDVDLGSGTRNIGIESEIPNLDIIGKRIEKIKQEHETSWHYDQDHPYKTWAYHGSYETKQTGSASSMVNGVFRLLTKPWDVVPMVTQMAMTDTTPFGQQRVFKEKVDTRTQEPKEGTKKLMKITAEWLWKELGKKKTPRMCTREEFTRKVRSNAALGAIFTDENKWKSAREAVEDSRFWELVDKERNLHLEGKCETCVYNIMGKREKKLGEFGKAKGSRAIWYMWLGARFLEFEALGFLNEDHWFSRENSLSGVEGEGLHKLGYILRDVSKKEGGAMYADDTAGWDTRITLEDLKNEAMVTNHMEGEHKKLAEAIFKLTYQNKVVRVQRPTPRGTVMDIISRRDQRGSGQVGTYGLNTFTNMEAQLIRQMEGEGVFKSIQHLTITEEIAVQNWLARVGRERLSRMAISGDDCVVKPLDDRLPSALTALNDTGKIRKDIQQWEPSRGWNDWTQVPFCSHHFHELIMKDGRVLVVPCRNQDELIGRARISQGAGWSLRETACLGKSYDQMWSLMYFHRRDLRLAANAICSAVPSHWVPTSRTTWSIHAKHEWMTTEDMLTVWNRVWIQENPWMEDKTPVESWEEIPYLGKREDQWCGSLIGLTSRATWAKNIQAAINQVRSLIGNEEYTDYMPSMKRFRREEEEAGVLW

As to `COC(=O)c1ccc(-n2cncn2)c([N+](=O)[O-])c1`, the EC50 in the test “cells [1]” and in “cells [2]” was > 350 µM (not active) throughout. With `COc1cccc(C2CC(c3cccs3)=NN2C(=O)CSc2nc3c(cnn3-c3ccc(F)cc3)c(=O)[nH]2)c1OC` (stereo not given), the AC50 at Trypsin is 3.95 µM (active). Further, at Streptokinase A, the EC50 is > 50 µM (not active). As to `CCOC(=O)c1cnc(SCc2ccc(Cl)c(Cl)c2)nc1N1CC1`, in the test with Vero, the 50% cytotoxic concentration (CC50) is > 25 µM (active). As for `Cc1ccc(N=C(S)N(CCCN(C)C)Cc2cc3cc4c(cc3nc2O)OCO4)c(C)c1`, in test [3], the EC50 is 3.35 µM (active). As to `C=CCc1ccccc1OCC(CN1CCCCC1)OC(C)=O` (stereo not given), the EC50 in [3] is 5.31 µM (active). As for `CC(C)(C)CC(C)(C)NCC(O)COc1ccc2c(c1)CCC2` (stereo not given), the EC50 in [3] is 3.35 µM (active). In the case of `CCN(CC)c1ccc(N=C2C(=O)Nc3ccccc32)cc1`, the IC50 at Genome polyprotein was > 100 µM (active); at Nonstructural protein 1 it was 14.3 µM (active). Also, the AC50 in test [4] is 2.06 µM (active); in the test on INS1 it was 20.2 µM (active). Regarding `CN1Cc2sc(N)c(C#N)c2CC1(C)C`, the IC50 in test [5] is 22.9 µM (active).

For the molecule `CN(Cc1ccccc1)C(=O)CSc1nnc(-c2ccco2)n1-c1ccccc1`, the EC50 in [3] is 1.68 µM (active). The same measure, in the same setting: the result for `COc1ccc(CN(C)C(=O)c2ccc(NC(=O)CC3SC(N4CCCC4)=NC3=O)cc2)c(OC)c1` (stereo not given) reads 2.37 µM (active). For the molecule `COc1ccc(C(=O)NC(Cc2ccc(OC(=O)c3ccc(OC)cc3)cc2)C(=O)O)cc1` (stereo not given), in [5], the IC50 was 9.12 µM (active).

For the molecule `O=C(NCCCn1ccnc1)c1cn(-c2ccccc2)nc1-c1ccc(F)cc1`, the IC50 in test [5] is 11.5 µM (active).

Take `Cc1ccc(C2=NOC(=O)/C2=C\c2ccccc2)cc1`: the EC50 in “cells [1]” and in “cells [2]” was > 350 µM (not active) throughout. On to `CCOc1nc(Nc2ccc(OC)cc2)nc(OCC)n1`, for which the EC50 in the test “cells [1]” and in “cells [2]” was > 350 µM (not active) in each case.

Regarding `CCCNC(=O)C[C@H]1C[C@H]2c3cc(NC(=O)CN(C)C)ccc3O[C@H]2[C@@H](CO)O1`, in test [6], the AC50 is 38.6 µM (active). In the case of `Fc1ccccc1N=C(S)Nc1ccc(Br)cc1`, the EC50 is > 350 µM (not active) in the test “cells [1]” and 169 µM (active) in the test “cells [2]”.

With `NC(=O)C1CCCN(Cc2c(C(=O)N3CCc4ccccc4C3)nc3ccc(Cl)cn23)C1` (stereo not given), the EC50 in the test “cells [1]” and in “cells [2]” was > 350 µM (not active) each time. As to `CCc1c(C(=O)N2CCCN(C)CC2)csc1C`, the half-maximal effective concentration (EC50) in test [3] was 5.96 µM (active). Take `COc1ccccc1N1CCN(C(=O)c2coc(=O)c(Br)c2)CC1`: the AC50 at Trypsin is 9.18 µM (active). Turning to `Cn1c(-c2cccc([N+](=O)[O-])c2)cnc1NCc1cccc(F)c1`, the CC50 in [7] is > 40 µM (active). In [4], the AC50 was 1.92 µM (active).

For `O=[N+]([O-])c1ccccc1NCCOc1ccccc1`, the figures for the EC50 (with H4; in test [8]; in test [9]) were 5.5 µM (active), 23.6 µM (active) and 24 µM (active), respectively. The values for the IC50 at Protein skinhead-1 and at Nonstructural protein 1 were 96.3 µM (inactive) and > 100 µM (active), respectively.

By EC50 is commonly meant the midpoint of the concentration-response curve. One may read the AC50 as the concentration at which the activity in the assay is half-maximal. One may read the CC50 as the concentration at which the toxic effect on the cells reaches its halfway point. One may read the IC50 as the point on the concentration scale where inhibition reaches its midpoint.
